In patent US11357873B2, “Chiral cyclen compounds and their uses” (THE HONG KONG POLYTECHNIC UNIVERSITY, priority 2016, dated 2022):
Where two headings read alike, the source gives them in different places.

What was measured:
[1] = TSA/SA isomer ratio of lanthanide complexes by 1H NMR; type: physicochemical; conditions: 25° C., 400 MHz, pD 7.0, aqueous solution
Text: (§1) In aqueous solution, the ratio of TSA/SA isomers of Eu(III) and Yb(III) complexes in DOTA-like systems can be easily determined by ^1H NMR as two well-defined sets of six resonances are observed for the diastereotopic protons in CH2CO and NCH2CH2N.^13 Although the Gd(III) complexes cannot be analyzed by NMR, their ratio of isomers are expected to be similar to those of the Eu(III) and Yb(III) complexes because the ionic radius of Gd(III) is similar to the ionic radius of Eu(III) and Yb(III).
(§2) The conformational properties of the lanthanide complexes were investigated by both HPLC and NMR spectroscopy. The ^1H NMR spectra of the four europium chiral DOTA-based complexes are compared in FIG. 3. […] In the cases of [EuL3]^− and [EuL4]^−, the twisted antiprismatic isomers were more dominant, with the ratio of 6.52 for [EuL3]^− and 13.50 for [EuL4]^− observed.
The ratio of TSA/SA isomers for [YbL1]^− (0.28) and [YbL2]^− (0.93) was relatively lower than that of the europium analogues. The ratio change from [YbL2]^− to [YbL3]^− was also not as apparent.

[2] = amine bond, 12-membered ring
[3] = Stability of isomers on heating and storage by 1H NMR; type: physicochemical; conditions: for isomer ratio after heating (lack of racemization): solution of [EuL2A]− and [EuL2B]− at 1:0.25, 90° C. for 3 days
Text: as §1, §2
The stability of the complexes toward racemization over time was also monitored by ^1H NMR (FIG. 20). […] Nevertheless, the original set of peaks existed predominately when the pD was adjusted from 6.0 to 7.5 and further heated for 12 h at 90° C. It can be observed that while the purity of the ligands may not be highly satisfactory, pure complexes could be obtained by HPLC separation after complexation. This phenomenon indicates the purification of DOTA-based ligands should be handled with care.

[4] = Absorption and photoluminescence (quantum yield, lifetime, q); type: physicochemical; design: λabs(max): unit not given here
Protocol: (§3) Absorption spectra of complexes were measured with HP UV-8453 spectrophotometer. Steady-state room temperature photoluminescence measurements were performed with an Edinburgh Instrument FLSP920 spectrophotometer equipped with a Xe900 continuous xenon lamp, μF920 microsecond flash lamp and a single photon counting photomultiplier tube. Spectra were corrected with the bundled F900 software. Solution-state measurements were conducted using quartz curettes of 10 mm path length. CPL measurements were conducted on a custom built spectrometer^63 (in Durham University) consisting of a laser driven light source (Energetiq EQ-99 LDLS, spectral range 170 to 2100 nm) coupled to an Acton SP2150 monochromator (600 g/nm, 300 nm Blaze) that allows excitation wavelengths to be selected with a 6 nm FWHM band-pass. The collection of the emitted light was facilitated (90° angle set up, 1 cm path length quartz curette) by a Lock-In Amplifier (Hinds Instruments Signaloc 2100) and Photoelastic Modulator (Hinds Instruments PEM-90). The differentiated light was focused onto an Acton SP2150 monochromator (1200 g/nm, 500 nm Blaze) equipped with a high sensitivity cooled Photo Multiplier Tube (H10723-20 Extended red-multialkali PMT based photosensor (5V)). Spectra were recorded using a 5 spectral average sequence in the range of 570-720 nm with 0.5 nm spectral intervals and 500 μs integration time. The recorded CPL spectrum underwent a 25% Fourier transformation smoothening protocol using Origin 8.0 Software (Origin Labs) to enhance appearance (all calculations were carried out using raw spectral data).
The shift in absorption is caused by electronic communication between the electropositive lanthanide center and the chromophore. […] These are not observed for 11, however, as we believe the steric effect of the planar phenyl ring of the benzyl group could not be alleviated by appropriate rotation, whereas that of the isobutyl group could.
The luminescence quantum yields of the complexes are decent in water and HEPES solution, although they are much higher in DMSO, due to the nonradiative quenching by O—H oscillators of water molecules in the second coordination sphere (Table 6). The intrinsic quantum yields^61—a calculated value evaluating the quantum yield of Eu(III) via direct metal excitation—of the complexes are calculated, and, as expected, the values are very similar, except for 10. The higher value corroborates with the shift in absorption maximum, for which we believe the reason is due to a shorter europium—chromophore distance and better interaction. On the other hand, the sensitization efficiencies of the complexes vary. […] The relatively remarkable ηsens of 13 is attributed to its structural rigidity, as both the tetraaza backbone and the acetate arms are modified with a chrial substituent, i.e., double chirality. The double chirality is also attributed for the increase in luminescence quantum yield compared to that of 12a/12b.

[5] = Circularly polarized luminescence (CPL), dissymmetry factor glum; type: physicochemical; conditions: wavelength in parentheses in the cell
Protocol: as §3, with “Steady-state” for “Absorption spectra of complexes were measured with HP UV-8453 spectrophotometer. Steady-state”, “time.” for “time. The recorded CPL spectrum underwent a 25% Fourier transformation smoothening protocol using Origin 8.0 Software (Origin Labs) to enhance appearance (all calculations were carried out using raw spectral data).”

Compound: CC(C)C[C@H]1CN(CC(=O)[O-])[C@@H](CC(C)C)CN(CC(=O)[O-])[C@@H](CC(C)C)CN(CC(=O)[O-])[C@@H](CC(C)C)CN1CC(=O)[O-].[Eu+3] [[EuL3]^−]
- isomer ratio of TSA/SA [1]: 6.52

Compound: CC(C)C[C@H]1CN(Cc2ccccc2)[C@@H](CC(C)C)CN(Cc2ccccc2)[C@@H](CC(C)C)CN(Cc2ccccc2)[C@@H](CC(C)C)CN1Cc1ccccc1
- ring closure, isolated yield [2]: 28.3%

Compound: CC[C@H]1CN(CC(=O)[O-])[C@@H](CC)CN(CC(=O)[O-])[C@@H](CC)CN(CC(=O)[O-])[C@@H](CC)CN1CC(=O)[O-].[Eu+3] (single isomer, unassigned) [[EuL2B]^−]
- isomer ratio after heating (lack of racemization) [3]: remained at the same ratio

Compound: CC(C)(C)OC(=O)NCCCC[C@H]1CN(Cc2ccccc2)[C@@H](CCCCNC(=O)OC(C)(C)C)CN(Cc2ccccc2)[C@@H](CCCCNC(=O)OC(C)(C)C)CN(Cc2ccccc2)[C@@H](CCCCNC(=O)OC(C)(C)C)CN1Cc1ccccc1
- ring closure, isolated yield ([2]; from CC(C)(C)OC(=O)NCCCCC1C[N@@]1Cc1ccccc1, TsOH.H2O, MeCN, 82.1 mM, 25.0 °C): 24.5%

Compound: CC[C@H]1CN(CC(=O)[O-])[C@@H](CC)CN(CC(=O)[O-])[C@@H](CC)CN(CC(=O)[O-])[C@@H](CC)CN1CC(=O)[O-].[Yb+3] [[YbL2]^−]
- isomer ratio of TSA/SA [1]: 0.93

Compound: CC[C@@H]1CN(CC(=O)[O-])[C@H](CC)CN(Cc2cc(C#Cc3c(OC)cc(OC)cc3OC)cc(P(C)(=O)[O-])n2)[C@H](CC)CN(CC(=O)[O-])[C@H](CC)CN1CC(=O)[O-].[Eu+3] [Complex 9]
- R, I(5D0 → 7F2)/I(5D0 → 7F1) ([4]; asymmetry ratio, room temperature, 10 in MeOH, 11 in DMSO): 2.44
- q (Parker's) ([4]; from lifetimes in H2O and D2O, first value of cell): 0.02
- q (Horrocks') ([4]; from lifetimes in H2O and D2O, second value of cell): 0.05
- ΦEuEu (%) ([4]; intrinsic quantum yield, calculated value): 28.1%
- τD2O/MeOD ([4]; luminescence lifetime, 5D0 → 7F2 transition, D2O (MeOD for 10)): 1.77 ms
- τH2O/MeOH ([4]; luminescence lifetime, 5D0 → 7F2 transition, H2O (MeOH for 10)): 1.20 ms
- ΦDMSO (%) ([4]; luminescence quantum yield in DMSO): 53.0%
- ΦH2O/MeOH (%) ([4]; luminescence quantum yield relative to quinine sulfate in 0.1M H2SO4, H2O (MeOH for 10, insoluble in H2O)): 14.9%
- ΦHEPES (%) ([4]; luminescence quantum yield, 0.1M HEPES buffer, pH 7.4): 14.3%
- λabs(max) ([4]; room temperature, 10 measured in MeOH, 11 in DMSO): 356
- ηsens (%) ([4]; sensitization efficiency, calculated according to ref 61): 53.0%
- glum ΔJ = 1 (λ) DMSO ([5]; DMSO): +0.17 (591)
- glum ΔJ = 3 (λ) DMSO ([5]; DMSO): +0.13 (657)
- glum ΔJ = 1 (λ) H2O ([5]; H2O): +0.12 (591)
- glum ΔJ = 3 (λ) H2O ([5]; H2O): +0.21 (653)
- 1H NMR spectrum after storage (stability toward racemization) ([3]; 9 months at room temperature, pD 6.0, D2O): consistent after 9 months of storage
- 1H NMR spectrum upon heating (stability toward racemization) ([3]; heating at 90° C.): a new set of peaks appeared

Compound: C[C@H]1CN(CC(=O)[O-])[C@@H](C)CN(CC(=O)[O-])[C@@H](C)CN(CC(=O)[O-])[C@@H](C)CN1CC(=O)[O-].[Yb+3] [[YbL1]^−]
- isomer ratio of TSA/SA [1]: 0.28

Compound: O=C([O-])CN1CC(Cc2ccccc2)N(CC(=O)[O-])CC(Cc2ccccc2)N(CC(=O)[O-])CC(Cc2ccccc2)N(CC(=O)[O-])CC1Cc1ccccc1.[Yb+3] (stereo not shown) [[YbL4]^−]
- isomer ratio of TSA/SA [1]: essentially one TSA isomer

Compound: CC[C@H]1CN(Cc2ccccc2)[C@@H](CC)CN(Cc2ccccc2)[C@@H](CC)CN(Cc2ccccc2)[C@@H](CC)CN1Cc1ccccc1
- ring closure, isolated yield [2]: 27.5%

Compound: CC[C@H]1CN(CC(=O)[O-])[C@@H](CC)CN(CC(=O)[O-])[C@@H](CC)CN(CC(=O)[O-])[C@@H](CC)CN1CC(=O)[O-].[Eu+3] [[EuL2]^−]
- isomer ratio of TSA/SA [1]: 1.27

Compound: O=[N+]([O-])c1ccc(C[C@H]2CN(Cc3ccccc3)[C@@H](Cc3ccc([N+](=O)[O-])cc3)CN(Cc3ccccc3)[C@@H](Cc3ccc([N+](=O)[O-])cc3)CN(Cc3ccccc3)[C@@H](Cc3ccc([N+](=O)[O-])cc3)CN2Cc2ccccc2)cc1
- ring closure, isolated yield ([2]; from O=[N+]([O-])c1ccc(CC2C[N@@]2Cc2ccccc2)cc1, TsOH.H2O, MeCN, 84.7 mM, 25.0 °C): 20.6%

Compound: CC[C@H]1CN(CC(=O)[O-])[C@@H](CC)CN(CC(=O)[O-])[C@@H](CC)CN(CC(=O)[O-])[C@@H](CC)CN1CC(=O)[O-].[Eu+3] (single isomer, unassigned) [[EuL2A]^−]
- isomer ratio after heating (lack of racemization) [3]: remained at the same ratio

Compound: c1ccc(C[C@H]2CN(Cc3ccccc3)[C@@H](Cc3ccccc3)CN(Cc3ccccc3)[C@@H](Cc3ccccc3)CN(Cc3ccccc3)[C@@H](Cc3ccccc3)CN2Cc2ccccc2)cc1
- ring closure, isolated yield [2]: 25%

Compound: O=C([O-])CN1CC(Cc2ccccc2)N(CC(=O)[O-])CC(Cc2ccccc2)N(CC(=O)[O-])CC(Cc2ccccc2)N(CC(=O)[O-])CC1Cc1ccccc1.[Eu+3] (stereo not shown) [[EuL4]^−]
- isomer ratio of TSA/SA [1]: 13.50

Compound: C[C@H]1CN(CC(=O)[O-])[C@@H](C)CN(CC(=O)[O-])[C@@H](C)CN(CC(=O)[O-])[C@@H](C)CN1CC(=O)[O-].[Eu+3] [[EuL1]^−]
- isomer ratio of TSA/SA [1]: 0.75
